Measurements published in US20150157672A1, “KITS AND METHODS FOR SUSTAINED WEIGHT LOSS” (PHYTOLOGY LABS, INC., priority 2013, published 2015).
Like-named read-outs stand apart in the source and are kept apart here.

What was measured:
[1] = when ingested; cited from earlier work
[2] = Rough point estimate of effect size by weight loss agent from published studies (Table 7); format: in vivo, human
Protocol: A rough point estimate of the effect size by weight loss agent was developed using data from published studies.
The ΔWt. LossMAX for Garcinia sp. from 1.0 kg to 3.0 kg assumes the dose response curve model is valid, which has not been proven. The dosage of Phaseolus vulgaris is measured in α-amylase blocking units. Coffea canefora is administered as Syetol®, a commercial preparation most commonly used in the studies (400 mg). Crocus sativus dosages for depression are much lower 30 mg and have been shown for extracts of both stigma & leaf.

[3] = cited from earlier work; for thermogenic response: in man
[4] = Estimated effect of first, second and third treatment phase (Tables 1-3); format: in vivo, human
Text: In some embodiments the first treatment phase may comprise administering at least one weight loss agent. In some embodiments, the at least one weight loss agent is a protein kinase A modulator, a neurotransmitter modulator or a combination thereof. In some embodiments, the weight loss agents administered during this treatment phase are selected from Camellia sinensis, caffeine, Capsicum sp., 5-hydroxytryptophan, and any combination thereof. In yet other embodiments the first treatment phase comprises administering Camellia sinensis, caffeine, Capsicum sp., 5-hydroxytryptophan, or any combination thereof. […] In some embodiments, the second treatment phase comprises administering at least one weight loss agent. In some embodiments, the at least one weight loss agent is a macro nutrient absorption modulator, a neurotransmitter modulator or a combination thereof. In some embodiments, the at least one weight loss agent is selected from Phaseolus vulgaris, […] gabonensis, Rhodiola rosea, and any combination thereof. In yet other embodiments the second treatment phase comprises administering Phaseolus vulgaris, […] gabonensis, Rhodiola rosea, or any combination thereof. […] In some embodiments, the third treatment phase comprises administering at least one weight loss agent. In some embodiments, the at least one weight loss agent is a Protein Kinase A modulator, Adenosine Mono-Phosphate activated Kinase (AMPk) modulator, or a combination thereof. In some embodiments, the at least one weight loss agent is selected from Coffea canefora, Coleus forskholii, yohimbine, caffeine, and any combination thereof. In yet other embodiments, the third treatment phase comprises administering Coffea canefora, Coleus forskholii, yohimbine, caffeine, or any combination thereof.

[5] = Systematic review and meta-analysis of randomized clinical trials of Garcinia extract (HCA) with dose-response curve; format: in vivo, human; conditions: curve ΔWt=ΔWtmax(1−e^−b*dosage)
Text: A systematic review and meta-analysis to examine the efficacy of Garcinia extract, hydroxycitric acid (HCA) as a weight reduction agent, using data from randomized clinical trials, found a small, statistically significant difference in weight loss of -0.9 kg between HCA and placebo. A nonlinear, significant (P<0.05) correlation between the dosage of HCA and body weight loss seems to exist. This relationship follows a curve ΔWt=Δ[…]) which is consistent with a first order ligand binding kinetics. […] However, HCA quickly approaches its asymptotic maximum by 2800 mg/day.

[6] = Kinetic decay model of weight loss fitted to published clinical data (efficacy benchmarks); format: in vivo, human; conditions: for ΔWt. LossMAX: model parameter; for Decay Coeff. (−b): model Weight (t)=Weight Plateau+ΔWt. LossMAX e^-bt, across studies and doses
Text: In order to better understand the underlying dynamics of weight loss agents over time, several weight loss agents were selected to study and attempt to model. These included a wide range of weight loss agents including dietary supplements (C. sinensis & alginate), OTC drugs (orlistat), and Rx drugs (sibutramine, Qysmia®). Over time, more may be added to the database to test hypotheses and to improve the modeling of the underlying weight loss dynamics.
All agents followed the same basic kinetic model: Weight (t)=Weight Plateau+ΔWt. LossMAX e-^bt, where Weight Plateau=Starting Weight−ΔWt. LossMAX. Where t=time, b=decay coefficient, and ΔWt. LossMAX=maximum amount of weight lost, which appears to be a function of weight loss agent, dosage, and patient population. […] It does appear to vary by weight loss agent. The variation within a weight loss agent appears to be fairly low. It is critical to note that these are only the initial observations based upon estimating the results using published data. The raw data, more observations, and a more sophisticated statistical analysis are needed in order to make more definitive claims. The fact that all weight loss agents seem to follow the same relationship supports the adaptation hypothesis. […] All of the observed data fit the model well. The decay coefficient was estimated to be 0.1±0.02, and all the studies except Rossner fell within one standard deviation of this mean. The decay coefficient for the Rossner study was 0.05, which is slightly more than two standard deviations from the mean. However, it is important to put this in context. The maximum difference between the model using 0.05 as the decay coefficient and 0.10 is about 2.0 kg, which falls within the observation error range. It is unclear whether this difference was due to random chance, to variation caused by the inherent error arising from estimating the data from the published graphs, or to something more fundamental. […] LossMAX for diabetic vs non-diabetic patients on orlistat. […] However, given the number of studies analyzed, it is premature to draw any definitive conclusions beyond that these are interesting data points from which a hypothesis can be generated. All of the observed data for Qysmia fit the model well, see FIG. 8. The decay coefficient was estimated to be 0.08±0.01. The decay coefficient was very consistent across all the studies and doses. Given these were registration studies, the larger sample sizes may have allowed for better resolution. The observed data for sibutramine also fit the model well. Since there were more studies, it was impractical to show them all in a graph. The decay coefficient was estimated to be 0.14±0.04. Sibutramine offered the widest number of conditions studied, and as expected, there was more variability in the decay coefficient.

[7] = FIG. 2; cited from earlier work
[8] = system: α1-receptor; conditions: functions as an antagonist; cited from earlier work
[9] = system: α2-adrenergic receptor; conditions: functions as an antagonist; cited from earlier work

For `N[C@@H](Cc1c[nH]c2ccc(O)cc12)C(=O)O` [5-hydroxytryptophan], the adverse effects [1] is listed as “nausea and diarrhea”, the Kcal/d ([2]; Dosage 50-900 mg oral) is listed as 400 kcal/day and the Kg./wk ([2]; Dosage 50-900 mg oral) is listed as 0.2 Kg./wk. The “ΔWt. LossMAX” value ([2]; Dosage 50-900 mg oral) was 1.5 to 2.5 kg, the “reduction in energy intake” value ([3]; spontaneous reduction of calorie consumption) was “about 243 Kcal/day” and the Estimated kcal/day reduction ([4]; first treatment phase) was 240 kcal/day. For the same compound, the “Estimated ΔWt. LossMAX” value ([4]; first treatment phase) was 1.5 to 2.5 kg.
In the case of `O=C(O)CC(O)(C(=O)O)C(O)C(=O)O` (centres unmarked) [HCA, hydroxycitric acid], the ΔWtmax [5] is reported as “about 3.5 kg”.
For `CCCCCCCCCCC[C@@H](C[C@@H]1OC(=O)[C@H]1CCCCCC)OC(=O)[C@H](CC(C)C)NC=O` [Orlistat, orlistat], the “ΔWt. LossMAX” value ([6]; Dosage 120 mg (diabetics)) was 4.3 kg, the “ΔWt. LossMAX” value ([6]; Dosage 120 mg) was 7.1 kg and the decay coefficient ([6]; Rossner study) was 0.05. For the same compound, the “Decay Coeff. (−b)” value [6] was 0.11 ± 0.02 and the “Decay Coeff. (−b)” value ([6]; listed as orlistat) was 0.1±0.02.
For `CC(C)(N)Cc1ccccc1` [Phentermine], the “time to reduction or complete cessation of weight loss” value [7] is listed as “about 4 weeks”.
For `CC(C)CC(N(C)C)C1(c2ccc(Cl)cc2)CCC1` (centres unmarked) [Sibutramine, sibutramine], the “ΔWt. LossMAX” value ([6]; Dosage 1 mg) was 3.7 kg, the “ΔWt. LossMAX” value ([6]; Dosage 5 mg) was 4.5 kg and the “ΔWt. LossMAX” value ([6]; Dosage 10 mg) was 8.4 kg. The “ΔWt. LossMAX” value ([6]; Dosage 15 mg) was 7.3 kg, the “ΔWt. LossMAX” value ([6]; Dosage 20 mg) was 8.5 kg and the “ΔWt. LossMAX” value ([6]; Dosage 30 mg) was 9.1 kg. For the same compound, the “Decay Coeff. (−b)” value [6] was 0.14 ± 0.04 and the “Decay Coeff. (−b)” value ([6]; listed as sibutramine) was 0.14±0.04.
For `Cn1c(=O)c2c(ncn2C)n(C)c1=O` [caffeine], the Kcal/d ([2]; Dosage 500-700 mg/day) is given as 50 to 75 kcal/day, the “raise of energy expenditure” value ([3]; 600 mg/day dose) is given as 63 kcal/day and the thermogenic response ([3]; dose 100 mg) is given as 4-5%. The thermogenic response ([3]; dose 200-250 mg) was 10-12%, the thermogenic response ([3]; dose 400-450 mg) was 16% and the “minimum (or near minimum) dose with demonstrable stimulatory effect on resting metabolic rate (RMR)” value ([3]; in vivo) was 100 mg. For the same compound, the Estimated kcal/day reduction ([4]; first treatment phase) was 60 kcal/day, the “Estimated ΔWt. LossMAX” value ([4]; first treatment phase) was 0.5 kg and the Estimated kg/wk reduction ([4]; third treatment phase) was 0.05 kg/wk. The “Estimated ΔWt. LossMAX” value ([4]; third treatment phase) was 0.5 kg.
In the case of `COC(=O)[C@@H]1[C@H]2C[C@H]3c4[nH]c5ccccc5c4CCN3C[C@@H]2CC[C@@H]1O` [yohimbine], the “affinity for the α1-receptor” value [8] is listed as “moderate affinity”, the Kg./wk ([2]; Dosage 20 mg/day) is listed as 0-0.16 Kg./wk and the “ΔWt. LossMAX” value ([2]; Dosage 20 mg/day) is listed as 0 to 1.5 kg. For the same compound, the Estimated kg/wk reduction ([4]; third treatment phase) was 0.1 kg/wk, the “Estimated ΔWt. LossMAX” value ([4]; third treatment phase) was 1.5 kg and the “affinity for the α2-adrenergic receptor” value [9] was “high affinity”.
